Drawing on patent publication US20230096051A1, “CGRP ANTIGONISTS USEFUL AS TRACER COMPOUNDS FOR POSITRON EMISSION TOMOGRAPHY” (Eli Lilly and Company, priority 2019, published 2023), this text covers concentration for three compounds.

The data set in a line: In vivo rat tracer distribution and brain uptake (LC-MS/MS). Also on record: species or system Sprague-Dawley rats. As to conditions: Sprague-Dawley, iv, 10 μg/kg i.v. Here is the method:
Stock Formulation: Prepare a tracer stock solution at 0.5 mg/mL in 25% HP-BCD/PW (corrected for salt weight). Vortex thoroughly for 30 sec and place in bath sonication for 30 mins. Confirm the stock formulation is a clear solution or homogeneous suspension. Acid (10 μL acetic acid) or base (10 μL 5N NaOH), probe sonication, or a sonic bath may be used to aid in solubilization.
Final Dosing Formulation: If the stock formulation is a solution or homogeneous suspension, allow the stock solution to sit at room temperature for 5 min, and confirm and document the appearance of the stock formulation. Dilute the stock solution to the appropriate dose concentrations with 25% HP-BCD/PW. Vortex the final dosing solutions for 30 sec. Final tracer dosing solution is used for generation of the LC/MS/MS calibration standards in the appropriate matrix.
Study populations: Animal studies are performed under protocols approved by Eli Lilly and Company and PreClinOmics Institutional Animal Care and Use Committee. Twenty Sprague-Dawley rats weighing 200-300 g are obtained from Harlan Sprague Dawley Inc. (Indianapolis, Ind.) and are randomized into 4 groups of 5 animals each. Animals have access to food and water ad libitum before the study.
Live Phase Methods: Five animals per dose group are used. Each animal receives 10 μg/kg of the CGRP tracer compound administered intravenously in the lateral tail vein. Animals are euthanized by cervical dislocation followed by decapitation or live decapitation after 5, 10, 20 or 40 min survival intervals.
Trunk blood is collected in EDTA-coated Eppendorf tubes and stored on wet ice until study completion. The whole brain is rapidly removed, and lightly rinsed with sterile water. Frontal cortex, hippocampus, cerebellum, brainstem, and striatum brain tissues are dissected, weighed, stored in 1.5 mL Eppendorf tubes, and placed on wet ice until completion of live phase study.
Using a drug naïve test subject, blood and seven cortical brain tissues samples are collected for use in generating blank and standard curve samples.
Tissue—Tissue samples are kept on wet ice until the completion of the live phase. Tissue samples collected from test and naïve subjects are homogenized at PreClinOmics (Indianapolis, Ind., USA) and immediately taken to AIT Bioscience (Indianapolis, Ind., USA) on wet ice to be centrifuged along with an excel sheet indicating tissue weights, amount of ACN+0.1% HCOOH added to all tissue samples, and how the naive tissues were spiked for standards. Details on processing at PreClinOmics are as follows:
ACN containing 0.1% HCOOH is added to each tissue sample at a volume of four times the weight of the tissue sample (e.g., Add 600 μL ACN to a 150 mg brain tissue). The sample is homogenized via probe sonication. The standard curve is a 6-point curve with the range of 0.3-60 ng/g, linear regression, correlation coefficient, R^2, minimum of ≥0.95. Calibration standards are prepared from control tissue matrix homogenate (of the same organ) spiked with a calculated volume of standard (prepared from the tracer dosing solution used during the live phase). The homogenized tissue samples and spiked standards are transferred to AIT Bioscience on wet ice. Once at AIT Biosciences, all homogenized samples are centrifuged for 20 min at 14,000 rpm. The supernatant solution is diluted with an internal standard solution (1.0 ng/mL diphenhydramine in water) at a ratio of 1:4. Following dilution of the supernatant, if the total sample volume in the well plate is too small for injection, an additional dilution is performed using the mobile phase, ACN:water:0.1% HCOOH (20:80:0.1), at a ratio of 1:1. This solution is mixed thoroughly and analyzed via LC/MS/MS for tracer compound. Additional dilutions incurred due to small sample volume have an appropriate dilution factor applied during regression analysis.
Blood Samples—Whole blood samples are kept on wet ice until the completion of the live phase. […]

Where [1] appears, read: brain stem, read-out: Mean tracer concentration ± SEM, Brain Stem.
Where [2] appears, read: cerebellum, read-out: Mean tracer concentration ± SEM, Cerebellum.
[3] abbreviates: frontal cortex, read-out: Mean tracer concentration ± SEM, Frontal Cortex.
Setting [4] is: hippocampus, read-out: Mean tracer concentration ± SEM, Hippocampus.
Setting [5] is: plasma, read-out: Mean tracer conc (plasma) ± SEM.
The mark [6] stands for this setting: striatum, read-out: Mean tracer concentration ± SEM, Striatum.

Each structure is given as a SMILES string. Where two headings read alike, the source gives them in different places.

Take `Cc1cc(N2CCC2)cc(OCc2ccc([C@@H](C)[C@@]3(C)C(=O)NC[C@@H]3CF)cc2)n1` [Example 1, (3R,4R)-3-[(1R)-1-[4-[[4-(azetidin-1-yl)-6-methyl-2-pyridyl]oxymethyl]phenyl]ethyl]-4-(fluoromethyl)-3-methyl-pyrrolidin-2-one]: the concentration at 5 min by setting is: under setting [1], 3.69 ± 0.29 ng/g; under setting [2], 3.52 ± 0.16 ng/g; under setting [3], 4.19 ± 0.29 ng/g; under setting [4], 3.52 ± 0.32 ng/g; under setting [5], 6.3 ± 0.63 ng/mL; under setting [6], 3.94 ± 0.32 ng/g. The concentration at 10 min by setting is: under setting [1], 2.46 ± 0.09 ng/g; under setting [2], 1.91 ± 0.05 ng/g; under setting [3], 2.27 ± 0.05 ng/g; under setting [4], 2.33 ± 0.09 ng/g; under setting [5], 3.37 ± 0.37 ng/mL; under setting [6], 2.44 ± 0.13 ng/g. The concentration at 20 min under setting [1] was 1.21 ± 0.08 ng/g; the concentration at 20 min under setting [2] turned out to be 0.9 ± 0.06 ng/g; the concentration at 20 min under setting [3] was found to be 0.98 ± 0.06 ng/g; the concentration at 20 min under setting [4] is 1.06 ± 0.07 ng/g; the concentration at 20 min under setting [5] was 1.72 ± 0.12 ng/mL; the concentration at 20 min under setting [6] was determined as 1.12 ± 0.07 ng/g. The concentration at 40 min reads like this: under setting [1], 0.41 ± 0.03 ng/g; under setting [2], 0.28 ± 0.02 ng/g; under setting [3], 0.29 ± 0.02 ng/g; under setting [4], 0.33 ± 0.02 ng/g; under setting [5], 0.48 ± 0.05 ng/mL; under setting [6], 0.34 ± 0.02 ng/g.

For the compound `Cc1cc(N2CC(F)C2)cc(OCc2ccc([C@@H](C)[C@@]3(C)C(=O)NC[C@@H]3C)cc2)n1` [Example 2, (3R,4R)-3-[(1R)-1-[4-[[4-(3-fluoroazetidin-1-yl)-6-methyl-2-pyridyl]oxymethyl]phenyl]ethyl]-3,4-dimethyl-pyrrolidin-2-one], the concentration at 5 min reads like this: under setting [1], 8.73 ± 0.51 ng/g; under setting [2], 8.76 ± 0.48 ng/g; under setting [3], 9.48 ± 0.57 ng/g; under setting [4], 7.66 ± 0.42 ng/g; under setting [5], 9.82 ± 0.82 ng/mL; under setting [6], 9.36 ± 0.54 ng/g. Also, the concentration at 10 min reads like this: under setting [1], 5.27 ± 0.85 ng/g; under setting [2], 4.78 ± 0.78 ng/g; under setting [3], 5.07 ± 0.56 ng/g; under setting [4], 4.64 ± 0.78 ng/g; under setting [5], 5.54 ± 0.8 ng/mL; under setting [6], 5.23 ± 0.91 ng/g. Also, the concentration at 20 min came out at 2.56 ± 0.33 ng/g under setting [1]; 2.08 ± 0.22 ng/g under setting [2]; 2.19 ± 0.24 ng/g under setting [3]; 2.29 ± 0.36 ng/g under setting [4]; 2.88 ± 0.37 ng/mL under setting [5]; 2.42 ± 0.28 ng/g under setting [6]. Besides, the concentration at 40 min runs as follows: under setting [1], 1.08 ± 0.08 ng/g; under setting [2], 0.88 ± 0.11 ng/g; under setting [3], 0.8 ± 0.09 ng/g; under setting [4], 0.74 ± 0.14 ng/g; under setting [5], 1.03 ± 0.12 ng/mL; under setting [6], 1.06 ± 0.16 ng/g.

`Cc1cc(N2CC(F)C2)cc(OCc2ccc([C@@H](C)[C@@]3(C)C(=O)NC[C@@H]3CF)cc2)n1` [Example 3, (3R,4R)-3-[(1R)-1-[4-[[4-(3-fluoroazetidin-1-yl)-6-methyl-2-pyridyl]oxymethyl]phenyl]ethyl]-4-(fluoromethyl)-3-methyl-pyrrolidin-2-one]: the concentration at 5 min runs as follows: under setting [1], 3.13 ± 0.22 ng/g; under setting [2], 3.06 ± 0.22 ng/g; under setting [3], 3.55 ± 0.33 ng/g; under setting [4], 2.9 ± 0.2 ng/g; under setting [5], 6.2 ± 0.5 ng/mL; under setting [6], 3.57 ± 0.28 ng/g. Further, the concentration at 10 min came out at 2.01 ± 0.17 ng/g under setting [1]; 1.76 ± 0.13 ng/g under setting [2]; 1.92 ± 0.16 ng/g under setting [3]; 1.91 ± 0.14 ng/g under setting [4]; 3.65 ± 0.26 ng/mL under setting [5]; 2.14 ± 0.16 ng/g under setting [6]. Besides, the concentration at 20 min under setting [1] turned out to be 1.18 ± 0.06 ng/g; the concentration at 20 min under setting [2] turned out to be 0.88 ± 0.06 ng/g; the concentration at 20 min under setting [3] amounted to 0.92 ± 0.05 ng/g; the concentration at 20 min under setting [4] worked out at 1.01 ± 0.06 ng/g; the concentration at 20 min under setting [5] came out at 1.94 ± 0.15 ng/mL; the concentration at 20 min under setting [6] is 1.09 ± 0.07 ng/g. In addition, the concentration at 40 min is, setting by setting: under setting [1], 0.42 ± 0.02 ng/g; under setting [2], 0.31 ± 0.02 ng/g; under setting [3], 0.31 ± 0.02 ng/g; under setting [4], 0.34 ± 0.02 ng/g; under setting [5], 0.73 ± 0.04 ng/mL; under setting [6], 0.36 ± 0.04 ng/g.
